Patent US10550097B2, “Selective 11-beta-hydroxysteroid dehydrogenase type 1 inhibitors” (DSM IP ASSETS B.V., priority 2015, dated 2020)

Key:
[1] = test system: Human skin from abdominal plastic surgery; assay: Ex vivo: total dermal collagen after cortisone and cortisone/inhibitor treatment; format: cell-based; conditions: cortisone alone 0.1 μM in DMSO, day 6; untreated set to 100%
Experimental: Human skin from abdominal plastic surgery was used. The skin samples were cut in pieces of ˜8×3 mm (ø×thickness) and cultured up to day 6 in an air-liquid interface in a perforated ring of stainless steel in contact with a culture medium (modified Williams' E medium), while renewing the culture medium on day 3. Six skin specimens were used for each test sample. Each test sample (4 μl) was applied topically on top of each piece after cleaning of the surface with a cotton pad, which was subsequently covered with a 6 ø mm delivery membrane, this procedure was repeated daily. After 6 days skin sections were stained with Picrosirius Red histochemical staining, that dyes collagen fibers in purple-red. The papillary dermis was selected for the analysis. The different colors of the pictures were separated by using a deconvolution matrix. After deconvolution only pink-reddish images are used. Within these images the evaluation of dermal collagen was performed by estimating both color intensity and distribution with IMAGE J (NIH) analysis software. Two slides of each skin sample were processed by image acquisition and related analysis (i.e. 12 images for each treatment).

[2] = Solubility in cosmetic oils from saturated mixtures (UPLC); format: physicochemical; conditions: 7 days at room temperature (22° C.); for Solubility in cosmetic oils: Cetiol B: Cetiol B (dibutyl adipate); for Solubility in cosmetic oils: DUB DIS: DUB DIS (diisopropyl sebacate); for Solubility in cosmetic oils: Finsolv EB: Finsolv EB (ethylhexyl benzoate)
Experimental: H2O+0.02% TFA (A phase) and MeCN+0.02% TFA (B phase) were used as eluents, with a flow of 0.5 mL/min.
The solubility of selected compounds was tested in the cosmetic oils Cetiol B (INCI name: dibutyl adipate from BASF Personal Care), DUB DIS (INCI name: diisopropyl sebacate from Stearinerie Dubois) and Finsolv EB ((INCI name: ethylhexyl benzoate from Innospec Performance Chemicals).
Samples of about 1 mg of the compounds to be tested were exactly weighted and dissolved in 90% MeCN(aq) to provide 0.1% (1000 ppm) w/v stock solutions. Aliquots of the stock solutions were diluted with 90% MeCN(aq) to provide 10, 100 and 250 ppm diluted solutions, which were tested by UPLC.
For each compound to be tested about 20 mg material were weighted in three microcentrifuge tubes and to each tube about 150 mg of one cosmetic oil were added, as reported in Table 5 below.
After mixing on a Vortex mixer for 5 min, the respective samples were mixed on a waving platform shaker (20 cycles/min) for 7 days at room temperature (22° C.). After that time, the tubes were centrifuged for 5 min at 12000 rpm, 10 μL samples of the supernatant were diluted to 1.00 mL with MeOH, 100 μL of these solutions were diluted to 1.00 mL with 90% MeCN(aq) and subsequently analyzed by UPLC. The compound concentration in each solution was calculated using the respective calibration curve. From the compound concentration in the diluted solutions the concentrations of the respective parent mixtures was calculated accordingly.

[3] = molecular target: 11β-HSD1 (Homo sapiens, UniProt P28845); assay: Human keratinocytes assay: 11β-HSD1 activity (cortisone to cortisol); format: cell-based; conditions: 48 h
Sequence of 11β-HSD1 (P28845 whole entry): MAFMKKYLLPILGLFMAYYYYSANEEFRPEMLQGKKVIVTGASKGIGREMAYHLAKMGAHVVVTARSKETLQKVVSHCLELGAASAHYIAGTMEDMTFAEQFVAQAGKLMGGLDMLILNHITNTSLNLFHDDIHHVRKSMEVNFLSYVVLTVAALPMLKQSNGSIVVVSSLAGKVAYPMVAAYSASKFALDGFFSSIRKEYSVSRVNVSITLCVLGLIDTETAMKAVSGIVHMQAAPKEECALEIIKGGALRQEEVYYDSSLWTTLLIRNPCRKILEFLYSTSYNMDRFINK
Experimental: Cell Culture: Primary human skin keratinocytes obtained from CelINTec advanced Cell Systems were maintained in CnT-PR medium at 37° C. in a humidified 5% CO2-air atmosphere. Cells were subcultured before reaching confluence.
Assessment of 11β-HSD1 activity: Human primary keratinocytes were pre-cultured in complete culture media (CnT-PR, CelINTec) to 90% of confluence. Subsequently cells were washed twice with PBS-buffer to remove remaining corticosteroids and media were exchanged to custom made hydrocortisone-free media.
Calculation: % remaining 11β-HSD1 activity=(cortisol-level with inhibitor/cortisol-level without inhibitor)*100%

Solubility in cosmetic oils: Cetiol B [2] [%]	Solubility in cosmetic oils: DUB DIS [2] [%]	Solubility in cosmetic oils: Finsolv EB [2] [%]	remaining activity at 0.001 µM [3] [%]	remaining activity at 0.00316 µM [3] [%]	remaining activity at 0.01 µM [3] [%]	remaining activity at 0.03162 µM [3] [%]	remaining activity at 0.1 µM [3] [%]	remaining activity at 40 pM [3] [%]	remaining activity at 0.0001 µM [3] [%]	remaining activity at 0.00032 µM [3] [%]	SMILES	Dermal collagen [1] [%]
3.3	2.6	4.0	70	42	23	9	3	–	–	–	Cc1ccc(-c2cccc(C(=O)N3CCCCCC3)c2)cc1 [IV-c, azepan-1-yl(4′-methyl-[1,1′-biphenyl]-3-yl)methanone]	–
10.0	4.3	2.6	–	–	–	–	–	–	–	–	Cc1ccc(-c2cccc(C(=O)N3CC(C)OC(C)C3)c2)cc1F (stereo not drawn) [III-b, (2,6-dimethylmorpholino) (3′-fluoro-4′-methyl-[1,1′-biphenyl]-3-yl)methanone]	–
–	–	–	55	37	11	3	0	–	–	70	Cc1ccc(-c2cccc(C(=O)N3CCOC(C)(C)C3)c2)cc1F [III-a, (2,2-dimethylmorpholino) (3′-fluoro-4′-methyl-[1,1′-biphenyl]-3-yl)methanone]	–

The remaining lines, values behind:

SMILES	Solubility in cosmetic oils: Cetiol B [2] [%]	Solubility in cosmetic oils: DUB DIS [2] [%]	Solubility in cosmetic oils: Finsolv EB [2] [%]	remaining activity at 0.001 µM [3] [%]	remaining activity at 0.00316 µM [3] [%]	remaining activity at 0.01 µM [3] [%]	remaining activity at 0.03162 µM [3] [%]	remaining activity at 0.1 µM [3] [%]	remaining activity at 40 pM [3] [%]	remaining activity at 0.0001 µM [3] [%]	remaining activity at 0.00032 µM [3] [%]	Dermal collagen [1] [%]
C[C@]12CCC(=O)C=C1CC[C@@H]1[C@@H]2C(=O)C[C@@]2(C)[C@H]1CC[C@]2(O)C(=O)CO [cortisone, reference compound]	–	–	–	–	–	–	–	–	–	–	–	77
CC1CCN(C(=O)c2cccc(-c3cccc(C(N)=O)c3)c2)CC1 [II-k, 3′-(4-methylpiperidine-1-carbonyl)-[1,1′-biphenyl]-3-carboxamide]	3.0	2.4	3.4	–	–	–	–	–	–	–	–	–
Cc1ccc(-c2cccc(C(=O)N3CCCC(C)(C)C3)c2)cc1F [II-h, (3,3-dimethylpiperidin-1-yl)(3′-fluoro-4′-methyl-[1,1′-biphenyl]-3-yl)methanone]	–	–	–	10	–	–	–	–	74	45	24	–
CC1CCN(C(=O)c2cccc(-c3ccccc3Cl)c2)CC1 [II-e, (2′-chloro-[1,1′-biphenyl]-3-yl)(4-methylpiperidin-1-yl)methanone]	–	–	–	85	70	50	21	4	–	–	–	–
